Results reported in patent publication EP0103895A2, “Novel hydroxylamine derivatives, production and use thereof” (MEIJI SEIKA KABUSHIKI KAISHA, priority 1982, dated 1984).
“And” between values parts separate entries of the source, which are not always exact repeats. Identical values can stand only once. Like-named read-outs stand apart in the source and are kept apart here.

Test system: canine filaria; Dirofilaria immitis
Assay: Test of anthelmintic effect against canine filaria in naturally infected dogs, subcutaneous injection, microfilaria in blood and adult filaria at autopsy (Test Examples A10, B10, C10, D10)
Type: in vivo
Details: for inhibition in vivo at 30 mg/kg: Dirofilaria immitis, sc, 240 h

SMILES: C=CCN(OC)C(C)=O [Compound B1, N-allyl-N-acetyl-O-methylhydroxylamine]
- inhibition in vivo at 30 mg/kg (dog, 30 mg/Kg x 3, subcutaneous injection, read-out: Effect on adult filaria: Percent of worms killed): 58%
- inhibition in vivo at 30 mg/kg (dogs, administration of 30 mg/Kg repeated three times, given as about 50% or more, read-out: anthelmintic effect against adult filaria): ≥ 50%
- Number of microfilaria/20 µl on 10th day after the last administration (dog, 30 mg/Kg x 3, subcutaneous injection, suspension in 1% Tween 80): 0 /20 µl
- Effect on adult filaria: Number of worms killed/ Total parasite (dog, 30 mg/Kg x 3, subcutaneous injection, 30 mg/kg): 8/15 and 12/21
- anthelmintic effect against microfilaria (mf) (dogs, administration of 30 mg/Kg repeated three times): marked anthelmintic effect
